Reference: ChEMBL document CHEMBL3872259, “Synthesis, characterization, and in vitro SAR evaluation of N,N'-bis(arylmethyl)-C2-alkyl substituted imidazolium salts” (Bioorg Med Chem Lett, 2017)
Values belong to the molecule of their own block, whether it stands above or below them.

What was measured:
[1] = Antiproliferative activity against human HOP62 cells assessed as cell growth at 10 uM measured after 48 hrs by sulforhodamine B assay relative to control; format: functional; conditions: HOP-62, 48 h, read-out: Activity
[2] = Antiproliferative activity against human EKVX cells assessed as cell growth at 10 uM measured after 48 hrs by sulforhodamine B assay relative to control; format: functional; conditions: read-out: Activity
[3] = Antiproliferative activity against human A549/ATCC cells assessed as cell growth at 10 uM measured after 48 hrs by sulforhodamine B assay relative to control; format: functional; conditions: A549, 48 h, read-out: Activity
[4] = Antiproliferative activity against human NCI-H460 cells assessed as reduction in cell viability measured after 72 hrs by MTT assay; format: functional, cell-based; conditions: NCI-H460, 72 h; for CC50: read-out: LC50 (the source's name)
[5] = Antiproliferative activity against human NCI-H1975 cells assessed as reduction in cell viability measured after 72 hrs by MTT assay; format: functional, cell-based; conditions: NCI-H1975, 72 h
[6] = Antiproliferative activity against human HCC827 cells assessed as reduction in cell viability measured after 72 hrs by MTT assay; format: functional, cell-based; conditions: HCC827, 72 h
[7] = Antiproliferative activity against human A549 cells assessed as reduction in cell viability measured after 72 hrs by MTT assay; format: functional, cell-based; conditions: A549, 72 h
[8] = Aqueous solubility of the compound; format: physicochemical; conditions: buffer
[9] = Antiproliferative activity against human HOP92 cells assessed as cell growth at 10 uM measured after 48 hrs by sulforhodamine B assay relative to control; format: functional; conditions: HOP-92, 48 h, read-out: Activity
[10] = Antiproliferative activity against human NCI-H226 cells assessed as cell growth at 10 uM measured after 48 hrs by sulforhodamine B assay relative to control; format: functional; conditions: NCI-H226, 48 h, read-out: Activity
[11] = Antiproliferative activity against human NCI-H23 cells assessed as cell growth at 10 uM measured after 48 hrs by sulforhodamine B assay relative to control; format: functional; conditions: NCI-H23, 48 h, read-out: Activity
[12] = Antiproliferative activity against human NCI-H322M cells assessed as cell growth at 10 uM measured after 48 hrs by sulforhodamine B assay relative to control; format: functional; conditions: read-out: Activity
[13] = Antiproliferative activity against human NCI-H460 cells assessed as cell growth at 10 uM measured after 48 hrs by sulforhodamine B assay relative to control; format: functional; conditions: NCI-H460, 48 h, read-out: Activity
[14] = Antiproliferative activity against human NCI-H522 cells assessed as cell growth at 10 uM measured after 48 hrs by sulforhodamine B assay relative to control; format: functional; conditions: NCI-H522, 48 h, read-out: Activity
[15] = Growth inhibition of human EKVX cells measured after 48 hrs by sulforhodamine B assay; format: functional; conditions: for CC50: read-out: LC50 (the source's name)
[16] = Growth inhibition of human HOP62 cells measured after 48 hrs by sulforhodamine B assay; format: functional; conditions: HOP-62, 48 h; for CC50: read-out: LC50 (the source's name)
[17] = Growth inhibition of human HOP92 cells measured after 48 hrs by sulforhodamine B assay; format: functional; conditions: HOP-92, 48 h; for CC50: read-out: LC50 (the source's name)
[18] = Growth inhibition of human NCI-H226 cells measured after 48 hrs by sulforhodamine B assay; format: functional; conditions: NCI-H226, 48 h; for CC50: read-out: LC50 (the source's name)
[19] = Growth inhibition of human NCI-H23 cells measured after 48 hrs by sulforhodamine B assay; format: functional; conditions: NCI-H23, 48 h; for CC50: read-out: LC50 (the source's name)
[20] = Growth inhibition of human NCI-H322M cells measured after 48 hrs by sulforhodamine B assay; format: functional; conditions: for CC50: read-out: LC50 (the source's name)
[21] = Growth inhibition of human NCI-H522 cells measured after 48 hrs by sulforhodamine B assay; format: functional; conditions: NCI-H522, 48 h

solubility [8]: > 10 mM
Structure (SMILES): CCc1n(Cc2ccc3ccccc3c2)cc[n+]1Cc1ccc2ccccc2n1.[Cl-]
IC50 [5]: < 1 µM
IC50 [6]: 2 µM

solubility [8]: > 10 mM
Structure (SMILES): [Cl-].c1ccc(-c2n(Cc3ccc4ccccc4n3)cc[n+]2Cc2ccc3ccccc3c2)cc1
IC50 [4]: 3 µM
IC50 [5]: 2 µM
IC50 [6]: 6 µM
IC50 [7]: 4 µM

solubility [8]: > 80 mM
Structure (SMILES): [Cl-].c1ccc(-c2n(Cc3ccc4ccccc4n3)cc[n+]2Cc2ccc3ccccc3n2)cc1
IC50 [4]: 8 µM
IC50 [5]: 2 µM
IC50 [6]: 8 µM
IC50 [7]: 14 µM

The remaining lines, values behind:

Structure (SMILES): Cc1n(Cc2ccc3ccccc3n2)cc[n+]1Cc1ccc2ccccc2c1.[Br-]
growth at 10 µM [1]: 13.3%
growth at 10 µM [2]: 48.3%
growth at 10 µM [3]: 33.5%
GI50 [4]: 0.959 µM
IC50 [4]: 2 µM
TGI [4]: 14.4 µM
CC50 [4]: 47 µM
IC50 [5]: < 1 µM
IC50 [6]: 9 µM
GI50 [7]: 1.31 µM
IC50 [7]: 3 µM
LC50 [7]: 43.5 µM
TGI [7]: 13.1 µM
solubility [8]: < 5 mM
growth at 10 µM [9]: -6.1%
growth at 10 µM [10]: 12.7%
growth at 10 µM [11]: 2.01%
growth at 10 µM [12]: 26%
growth at 10 µM [13]: 10.2%
growth at 10 µM [14]: 3.95%
GI50 [15]: 3.93 µM
TGI [15]: 27.6 µM
CC50 [15]: > 100 µM
GI50 [16]: 1.53 µM
TGI [16]: 6.66 µM
CC50 [16]: 34.5 µM
GI50 [17]: 0.518 µM
TGI [17]: 3.81 µM
CC50 [17]: 27 µM
GI50 [18]: 1.86 µM
TGI [18]: 10.9 µM
CC50 [18]: 47.5 µM
GI50 [19]: 1.83 µM
TGI [19]: 13.4 µM
CC50 [19]: 62 µM
GI50 [20]: 3.27 µM
TGI [20]: 14.7 µM
CC50 [20]: 40.4 µM
GI50 [21]: 0.271 µM
LC50 (50% lethal concentration) [21]: 12.4 µM
TGI [21]: 1.46 µM

Structure (SMILES): OCc1n(Cc2ccc3ccccc3c2)cc[n+]1Cc1ccc2ccccc2c1.[Br-]
growth at 10 µM [1]: 75%
growth at 10 µM [2]: 83.3%
growth at 10 µM [3]: 68.6%
IC50 [4]: 14 µM
IC50 [5]: 7 µM
IC50 [6]: 12 µM
IC50 [7]: > 30 µM
solubility [8]: < 0.5 mM
growth at 10 µM [9]: -2.81%
growth at 10 µM [10]: 61.6%
growth at 10 µM [11]: 67.7%
growth at 10 µM [12]: 78.9%
growth at 10 µM [13]: 53.1%

Structure (SMILES): CCCc1n(Cc2ccc3ccccc3n2)cc[n+]1Cc1ccc2ccccc2c1.[Cl-]
growth at 10 µM [1]: 8.38%
growth at 10 µM [2]: 41.6%
growth at 10 µM [3]: 39.1%
GI50 [4]: 0.658 µM
IC50 [4]: 3 µM
TGI [4]: 10.6 µM
CC50 [4]: 46.5 µM
IC50 [5]: 2 µM
IC50 [6]: 6 µM
GI50 [7]: 1.88 µM
IC50 [7]: 3 µM
LC50 [7]: 37.3 µM
TGI [7]: 11.8 µM
solubility [8]: > 10 mM
growth at 10 µM [9]: -18.6%
growth at 10 µM [10]: 12.3%
growth at 10 µM [11]: -11.6%
growth at 10 µM [12]: 25.7%
growth at 10 µM [13]: 7.73%
growth at 10 µM [14]: -0.78%
GI50 [15]: 2.16 µM
TGI [15]: 14.9 µM
CC50 [15]: 52.7 µM
GI50 [16]: 1.63 µM
TGI [16]: 5.38 µM
CC50 [16]: 26.1 µM
GI50 [17]: 0.188 µM
TGI [17]: 1.12 µM
CC50 [17]: 9.13 µM
GI50 [18]: 1.2 µM
TGI [18]: 7.6 µM
CC50 [18]: 39.7 µM
GI50 [19]: 0.479 µM
TGI [19]: 10.6 µM
CC50 [19]: 52 µM
GI50 [20]: 3.46 µM
TGI [20]: 15 µM
CC50 [20]: 39.6 µM
GI50 [21]: 0.249 µM
LC50 (50% lethal concentration) [21]: 4.59 µM
TGI [21]: 1.13 µM
